Activity calls are given as the source filed them. The calls are words filed in the database; no cut-off is given here.
Tests used:
Rattus norvegicus [1] = test: (§1) Antiakinetic activity in 6-OHDA induced unilaterally lesioned Wistar rat Parkinson's disease model assessed as restoration of 6-OHDA-induced decrease in number of adjusting steps in contralateral forelimb administered ip qd for 5 days prior to 6-OHDA-challenge measured on day 11 post 1 hr of last dosage; assay type: functional, organism-based
Rattus norvegicus [2] = test: Antiakinetic activity in 6-OHDA induced unilaterally lesioned Wistar rat Parkinson's disease model assessed as increase in double contacts at 10 mg/kg, ip qd administered 5 days prior to 6-OHDA-challenge measured on day 11 post 1.5 hr of last dosage by cylinder test; assay type: functional, organism-based
Rattus norvegicus [3] = test: (§2) Antiakinetic activity in 6-OHDA induced unilaterally lesioned Wistar rat Parkinson's disease model assessed as reduction in 6-OHDA-induced increase in initiation time to move towards plane surface administered ip qd for 5 days prior to 6-OHDA-challenge measured 1 hr post compound treatment on day 11 relative to non-lesioned control; assay type: functional, organism-based
[4] = Tmax in mouse at 2 mg/kg, po or 1 mg/kg, iv; assay type: ADME, organism-based; conditions: in vivo
[5] = Cmax in mouse at 2 mg/kg, po or 1 mg/kg, iv; assay type: ADME, organism-based; conditions: in vivo
[6] = AUC in mouse at 2 mg/kg, po or 1 mg/kg, iv; assay type: ADME, organism-based; conditions: in vivo
[7] = Metabolic stability in human liver microsomes measured after 1 hr; assay type: ADME; conditions: read-out: Stability
[8] = Metabolic stability in mouse plasma measured after 1 hr; assay type: ADME, cell-free; conditions: read-out: Stability
[9] = Permeability of the compound by PAMPA; assay type: ADME
[10] = Ratio of drug level in mouse brain to plasma at 10 mg/kg, ip measured after 1 hr; assay type: ADME, organism-based; conditions: read-out: BPR
HeLa = test: Activation of SERCA in human HeLa cells expressing YFP/CFP fused cameleon assessed as reduction in thapsigargin-induced decrease in endoplasmic reticulum calcium level by inverted wide-field fluorescence microscopy; assay type: cell-based
[11] = Cytoprotection against thapsigargin-induced ER-stress in rat CSM14.1 cells assessed as cell viability at 15 ug/ml preincubated for 2 hrs followed by thapsigargin addition measured after 20 hrs by ATPlite assay relative to thapsigargin treated control; assay type: functional; conditions: read-out: Activity
Rattus norvegicus [12] = test: as §2, with “at 10 mg/kg,” for “administered”, “administered” for “for”; assay type: functional, organism-based
Rattus norvegicus [13] = test: as §1, with “forelimb at 10 mg/kg,” for “forelimb administered”, “qd administered” for “qd for”; assay type: functional, organism-based
Rattus norvegicus [14] = test: Antiakinetic activity in 6-OHDA induced unilaterally lesioned Wistar rat Parkinson's disease model assessed as assessed as increase in double contacts compound administered ip, qd for 5 days prior to 6-OHDA-challenge measured on day 11 post 1.5 hr of last dosage by cylinder test; assay type: functional
Homo sapiens = species on record: Homo sapiens; test: Activation of SERCA (unknown origin)
Rattus norvegicus [15] = species on record: Rattus norvegicus; test: Cytoprotection against thapsigargin-induced ER-stress in rat CSM14.1 cells assessed as increase in cell viability preincubated for 2 hrs followed by thapsigargin addition measured after 20 hrs by ATPlite assay relative to thapsigargin treated control; assay type: functional, cell-based

SMILES | Activity (Rattus norvegicus [1]) | Activity (Rattus norvegicus [2]) | Activity (Rattus norvegicus [3]) | Tmax [4] | Cmax [5] | AUC [6] | remaining at 1 h [7] | remaining at 1 h [8] | permeability [9] | Kp at 1 h [10] | Activity (HeLa) | viability at 15 µg/mL [11] | Activity (Rattus norvegicus [12]) | Activity (Rattus norvegicus [13]) | Activity (Rattus norvegicus [14]) | Activity (Homo sapiens) | Activity (Rattus norvegicus [15])
N[C@@H](Cc1ccc(O)c(O)c1)C(=O)O | Active | Active | Active | – | – | – | – | – | – | – | – | – | – | – | – | – | –
Cc1ccc2cccc(NC(=O)c3ccc(OC(C)C)cc3)c2n1 | – | – | – | 40.2 min | 260 nM | 0.41 µM·h | 58% | 94% | Permeable | 2.83 to 3 | Active | 100% | Active | Active | Active | Active | Dose-dependent effect
